From patent publication EP4620949A1, “ACKR3 MODULATORS FOR CARDIOVASCULAR OR ANTIPLATELET THERAPY” (Eberhard Karls Universität Tübingen (Medizinische Fakultät), priority 2024, dated 2025) come the findings set out here.

pEC50: −log10 of the molar value. “And” between values parts separate entries of the source, which are not always exact repeats. Equal entries are not always repeated.

Usually pEC50 stands for the negative decadic logarithm of the EC50, by convention in mol/L. Higher therefore signals a small EC50.

Test [1] has as its system platelets. Nature of the test: Flow cytometry assay of platelet degranulation (P-Selectin surface expression in PRP). The test is classed as cell-based, human. Conditions: for P-Selectin expression reduction: PRP pre-incubated with compound (100 µM), then CRP-XL (1 µg/mL), % ±SEM normalized to CRP-XL-treated vehicle PRP. How it is done: Platelet Degranulation Studies of Derivatives. Concurrent with the β-Arrestin recruitment potency optimization, the compounds were also tested and developed according to their functional activity. To determine the ability of a compound to modulate platelets, P-Selectin surface expression was measured. P-Selectin is a surface protein involved in cell adhesion mechanisms and can be found on activated platelets. After induction of platelet aggregation in platelet-rich plasma (PRP), treatment with the respective compound should therefore lead to a significant reduction in P-Selectin expression. […]. […]. Similarly, platelet degranulation potency was highly sensitive toward "linker"-changes (Structure C, Table 1). A distinct trend could not be registered. […]. Flow Cytometry Assay. The inhibition of platelet degranulation was determined via flow cytometry experiments. Platelets were treated with collagen-related peptide (CRP-XL, CambCol Laboratories, Cambridge, UK) and the platelets' activation state was determined (Geue, S.; Aurbach, K.; Manke, M.-C.; Manukjan, G.; Münzer, P.; Stegner, D.; Brähler, C.; Walker-Allgaier, B.; Märklin, M.; Borst, C. E.; Quintanilla-Fend, L.; Rath, D.; Geisler, T.; Salih, H. R.; Seizer, P.; Lang, F.; Nieswandt, B.; Gawaz, M.; Schulze, H.; Pleines, I.; Borst, O. Pivotal role of pdk1 in megakaryocyte cytoskeletal dynamics and polarization during platelet biogenesis. Blood 2019, 134, 1847-1858; and Malehmir, M.; Pfister, D.; Gallage, S.; Szydlowska, M.; Inverso, D.; Kotsiliti, E.; Leone, V.; Peiseler, M.; Surewaard, B. G. J.; Rath, D.; Ali, A.; Wolf, M. J.; Drescher, H.; Healy, M. E.; Dauch, D.; Kroy, D.; Krenkel, O.; Kohlhepp, M.; Engleitner, T.; Olkus, A.; Sijmonsma, T.; Volz, J.; Deppermann, C.; Stegner, D.; Helbling, P.; Nombela-Arrieta, C.; Rafiei, A.; Hinterleitner, M.; Rail, M.; Baku, F.; Borst, O.; Wilson, C. L.; Leslie, J.; O'Connor, T.; Wes-ton, C. J.; Chauhan, A.; Adams, D. H.; Sheriff, L.; Teijeiro, A.; Prinz, M.; Bogeska, R.; An-stee, N.; Bongers, M. N.; Notohamiprodjo, M.; Geisler, T.; Withers, D. J.; Ware, J.; Mann, D. A.; Augustin, H. G.; Vegiopoulos, A.; Milsom, M. D.; Rose, A. J.; Lalor, P. F.; Llovet, J. M.; Pinyol, R.; Tacke, F.; Rad, R.; Matter, M.; Djouder, N.; Kubes, P.; Knolle, P. A.; Unger, K.; Zender, L.; Nieswandt, B.; Gawaz, M.; Weber, A.; Heikenwalder, M. Platelet gpibα is a mediator and potential interventional target for nash and subsequent liver cancer. Nat. Med. 2019, 25, 641-655). Briefly, PRP was isolated from peripheral human blood collected in citrate-phosphate-dextrose solution with adenine (CPDA) and diluted with phosphate-buffered saline (PBS) (Sigma Aldrich Co., Ltd., St. Luis, Missouri, USA) supplemented with CaCl2 and MgCl2. PRP (106 platelets /sample) was preincubated with the respective compound (100 µM) for 15 min. Samples were treated with 1 µg/ml CRP-XL (CambCol Laboratories, Cambridge, UK) for 30 min at room temperature in the presence of the respective fluorochrome-conjugated antibody against P-Selectin (CD62P-FITC; Beckman Coulter, Brea, CA, USA). Subsequently, samples were fixed in 0.5% paraformaldehyde and analyzed on a FACS-Calibur flow cytometer (FACS-Caliber flow cytometer, Becton-Dickinson, East Rutherford, NJ, USA). Mean fluorescence intensity (MFI) was used as a quantitative measurement of platelet surface expression.
A general note: A flow cytometer gives signals particle by particle.

The target of test [2] is T1, human ACKR3 (Homo sapiens, UniProt P25106).
T1 construct: expressed in transfected cells; host or cells: HEK293T
T1 sequence (P25106 whole entry): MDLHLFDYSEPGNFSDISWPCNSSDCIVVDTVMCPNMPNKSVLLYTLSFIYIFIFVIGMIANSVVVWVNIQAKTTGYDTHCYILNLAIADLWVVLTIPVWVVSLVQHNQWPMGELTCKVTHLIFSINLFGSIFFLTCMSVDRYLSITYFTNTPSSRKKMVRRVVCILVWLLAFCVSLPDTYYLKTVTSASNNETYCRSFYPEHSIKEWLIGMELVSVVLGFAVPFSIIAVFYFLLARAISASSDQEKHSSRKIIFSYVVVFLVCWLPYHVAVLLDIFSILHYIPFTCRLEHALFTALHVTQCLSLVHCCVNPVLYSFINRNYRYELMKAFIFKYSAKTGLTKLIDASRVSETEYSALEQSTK
T1 sequence (P49407 whole entry partner): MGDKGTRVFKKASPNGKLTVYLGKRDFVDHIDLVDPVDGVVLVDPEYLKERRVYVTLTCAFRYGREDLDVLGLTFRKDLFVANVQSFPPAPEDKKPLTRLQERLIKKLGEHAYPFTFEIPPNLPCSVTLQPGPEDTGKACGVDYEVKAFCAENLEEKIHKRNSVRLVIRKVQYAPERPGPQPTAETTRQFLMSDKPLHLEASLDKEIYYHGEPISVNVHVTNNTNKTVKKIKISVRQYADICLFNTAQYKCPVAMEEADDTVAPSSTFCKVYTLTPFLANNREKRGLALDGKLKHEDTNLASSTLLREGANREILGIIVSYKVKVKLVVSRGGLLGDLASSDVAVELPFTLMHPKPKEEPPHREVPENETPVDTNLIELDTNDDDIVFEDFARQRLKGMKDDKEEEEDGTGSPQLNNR
Nature of the test: ACKR3 β-Arrestin recruitment assay (NanoLuc complementation, NanoBiT) in HEK293T cells. It counts as cell-based. To be noted: for pEC50: ACKR3, HEK293T cells, average value of three independent experiments. The procedure:
ACKR3 β-Arrestin Recruitment Assay. […] T.; Encell, L. P.; Wood, K. V. Nanoluc complementation reporter optimized for accurate measurement of protein interactions in cells. […] B.; Reynders, N.; Vanderplasschen, A.; Ollert, M.; Bouvier, M.; Szpakowska, M.; Chevigné, A. Proadrenomedullin n-terminal 20 peptides (pamps) are agonists of the chemokine scavenger receptor ACKR3/CXCR7. […] The prepared cells were then treated with compounds at concentrations ranging from 0.3 nM to 100 µM. Induction of β-Arrestin recruitment to receptors was evaluated by measuring bioluminescence with a Mithras LB940 luminometer (Berthold Technologies).
All curves were fitted to data points generated from the mean of at least three independent experiments. Results with values of p < 0.05 were considered statistically significant.
Background: Recruitment of arrestin is a read-out of receptor activation apart from second messengers.

As for `CN(CCCNC(=O)c1ccc(-c2ccccc2)s1)Cc1ccccc1` [Compound 1, N-(3-(benzyl(methyl)amino)propyl)-5-phenylthiophene-2-carboxamide], in test [1], the P-Selectin expression reduction is 71% and 74±9%.
On to `CN(CCCNC(=O)c1cc2ccccc2o1)Cc1ccccc1` [Compound 5, N-(3-(benzyl(methyl)amino)propyl)benzofuran-2-carboxamide], for which the “functional activity (in words)” value in test [1] (P-Selectin flow cytometry, "head"-scaffold compounds) was “inactive”. Besides, the P-Selectin expression reduction in test [1] came out at 35%.
For `CN(CCCNC(=O)c1ccc(-c2ccc(F)cc2)s1)Cc1ccccc1` [Compound 14, N-(3-(benzyl(methyl)amino)propyl)-5-(4-fluorophenyl)thiophene-2-carboxamide], the P-Selectin expression reduction in test [1] stood at 87±7%.
Same read-out and setting: the figure for `CN(CCCNC(=O)c1ccc(-c2ccccc2F)s1)Cc1ccccc1` [Compound 15, N-(3-(benzyl(methyl)amino)propyl)-5-(2-fluorophenyl)thiophene-2-carboxamide] is 71±11%.
Still for that read-out and setting: the value for `CN(CCCNC(=O)c1ccc(-c2cc(F)cc(F)c2)s1)Cc1ccccc1` [Compound 17, N-(3-(benzyl(methyl)amino)propyl)-5-(3,5-difluorophenyl)thiophene-2-carboxamide] was 81±9%.
Same read-out and setting: the figure for `CN(CCCNC(=O)c1ccc(-c2ccccc2)s1)Cc1ccc(Br)cc1` [Compound 19, N-(3-((4-bromobenzyl)(methyl)amino)propyl)-5-phenylthiophene-2-carboxamide] is 89±3%.
On to `CN(CCCNC(=O)c1ccc(-c2ccccc2)s1)Cc1ccccc1F` [Compound 21, N-(3-((2-fluorobenzyl)(methyl)amino)propyl)-5-phenylthiophene-2-carboxamide], for which the P-Selectin expression reduction in test [1] was 40% and 40±10%.
Consider `CN(CCCNC(=O)c1ccc(-c2ccccc2)s1)Cc1cccc(F)c1` [Compound 22, N-(3-((3-fluorobenzyl)(methyl)amino)propyl)-5-phenylthiophene-2-carboxamide], for which the P-Selectin expression reduction in test [1] is 66% and 66±14%.
On the same count and under the same terms, the figure for `O=C(NCCCN(Cc1ccccc1)C1CC1)c1ccc(-c2ccccc2)s1` [Compound 25, N-(3-(benzyl(cyclopropyl)amino)propyl)-5-phenylthiophene-2-carboxamide] is 16±7%.
On the same count and under the same terms, the figure for `CCN(CCCNC(=O)c1ccc(-c2cccc(F)c2)s1)Cc1ccccc1` [Compound 31, N-(3-(benzyl(ethyl)amino)propyl)-5-(3-fluorophenyl)thiophene-2-carboxamide] is 95±1%; for `CCN(CCCNC(=O)c1ccc(-c2cccc(F)c2)s1)Cc1ccc(F)cc1` [Compound 32, N-(3-(ethyl(4-fluorobenzyl)amino)propyl)-5-(3-fluorophenyl)thiophene-2-carboxamide] it is 96±1%.
For the molecule `O=C(NCCCNCc1ccccc1)c1ccc(-c2ccccc2)s1` [Compound 34, N-(3-(benzylamino)propyl)-5-phenylthiophene-2-carboxamide], the P-Selectin expression reduction in test [1] is 95±1%.
`O=C(NCCCN1CCc2ccccc2C1)c1ccc(-c2ccccc2)s1` [Compound 35, N-(3-(3,4-dihydroisoquinolin-2(1H)-yl)propyl)-5-phenylthiophene-2-carboxamide]: the P-Selectin expression reduction in test [1] is on record as 27±9%.
Same read-out and setting: the figure for `O=C(NCc1cccc([N+](=O)[O-])c1)c1ccc(-c2ccccc2)s1` [Compound 42, N-(3-nitrobenzyl)-5-phenylthiophene-2-carboxamide] is 17±3%.
The molecule `CN1CCCC1CCNC(=O)c1csc(-c2ccccc2)n1` (stereo not drawn) [Compound 44, N-(2-(1-methylpyrrolidin-2-yl)ethyl)-2-phenylthiazole-4-carboxamide] gave a pEC50 in test [2] of 5.52.
`O=C(NCc1ccccc1)C1CCN(Cc2csc(-c3ccccc3)n2)CC1` [Compound 48, N-benzyl-1-((2-phenylthiazol-4-yl)methyl)piperidine-4-carboxamide]: in test [2], the pEC50 is 5.82 and 5.96. Besides, the “Efficacy (Emax) vs CXCL12” value in test [2] (efficacy of CXCL12 at 300 nM set as 100%, average of three independent experiments) is 110%.
